{
  "source": "patent US10815275B2",
  "about": "“Antimicrobial peptoids with improved selectivity and use thereof” (priority 2018, dated 2020)",
  "key": {"[1]": {"experiment": "Metabolic stability in human liver S9 fraction, HPLC", "format": "in vitro ADME", "settings": "human, s9, pH 7.4", "protocol": "In order to identify metabolic stability of the peptoids synthesized in Preparation Example 1, such peptoids were subjected to enzymatic reaction using S9 fraction which is a mixture of human liver tissue-extracted metabolic enzymes. Thereafter, for the reaction products, metabolites were quantitated using HPLC.\nSpecifically, Peptoid NOS. 1 and 4, and Pexiganan as a peptide control (40 μL each, 100 μM) were treated with […], 3.3 mM MgCl2, and 1.3 mM NADPH buffer (306 μL, pH=7.4), to prepare respective samples. The respective samples were treated with S9 fraction (2 μL, 0.1 mg/mL) and then incubated at a temperature of 37° C. When 0, 1, 4, and 24 hours had elapsed after treatment with the S9 fraction, 40 μL of each sample was taken out, and acetonitrile containing the same amount of 0.1% trifluoroacetic acid was used to stop activity of enzymes contained in the S9 fraction. Thereafter, proteins precipitated with acetonitrile were centrifuged at a condition of 1,000×g for 10 minutes at a temperature of 4° C. Then, supernatant was analyzed by HPLC to identify an amount of the remaining peptoid which had not been degraded by the enzymes in the S9 fraction."}, "red blood cells": {"system": "red blood cells", "experiment": "Hemolytic activity on red blood cells", "format": "cell-based, mouse", "method_in_brief": "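Washed mouse red blood cells (10% v/v in PBS, pH 7.4) incubated with peptoids for 1 h at 37 °C; released haemoglobin read at 540 nm. % hemolysis normalised to 0.1% Triton X-100 (100%) and PBS blank; HD10, HD50 derived, Hmax taken at 200 μM top concentration.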"}, "B. subtilis": {"system": "B. subtilis", "format": "cell-based", "settings": "18 h", "protocol": "In order to measure antimicrobial activity of the peptoids, Gram-positive B. subtilis or Gram-negative E. coli strain DH5α was treated with Peptoid NOS. 1, 18 to 23, and the peptide Pexiganan, and minimum inhibitory concentrations were measured. Peptoid NOS. 1 and 2, and the peptide Pexiganan are already known antimicrobial peptoids and peptides, and were used for the purpose of making a comparison with novel peptoids in terms of antimicrobial activity.\nSpecifically, B. subtilis or E. coli DHS a was inoculated into LB liquid medium, and cultured at a temperature of 37° C. for 18 hours. Thereafter, the bacteria were diluted with LB medium so that each bacterial number was 2×10^5 colony-forming units (CFU) per 1 mL, and dispensed into 96-well microtiter plates at 100 μL each. The peptoid, which is 2-fold serially diluted using sterile water, was added to each well at 100 μL each. The plates were incubated at a temperature of 37° C. for 18 hours.\nThereafter, absorbance was measured at a wavelength of 600 nm using a microplate reader (Bio-Rad). The lowest peptoid concentration that completely suppresses growth of microorganisms was measured by a minimum inhibitory concentration (MIC), and the measurement results are shown in Table 12 below. Each of the minimum inhibitory concentration values was calculated as an average value of numerical values obtained through three independent experiments."}, "MRCS cell line": {"system": "MRCS cell line", "experiment": "in vitro", "format": "cell-based", "settings": "concentration indicating 50% survival, 24 h, MTS; read-out: LC50 (the source's name)", "protocol": "In order to determine whether the peptoids were cytotoxic against human cell lines, […] cell line (Korean Cell Line Bank) which is a human lung cell line was cultured in a DMEM (Dulbecco's modified Eagle's medium) culture solution containing 10% (v/v) fetal bovine serum (FBS) at 5% CO2 and a temperature of 37° C. 100 μL of DMEM medium was dispensed into each well of a 96-well microtiter plate so that the number of cells was 1.3×10^4, and then incubated overnight at a temperature of 37° C. in a 5% CO2 incubator. In this case, a DMEM medium was used as a negative control. Thereafter, the peptoid which is 2-fold serially diluted using sterile water was added to each well, and then incubated for 24 hours.\nAfter incubation, 20 μL of an MTS solution [3-(4,5-dimethylthiazol-2-yl)-5-(3-carboxymethoxyphenyl)-2-(4-sulfophenyl)-2H-tetrazolium, inner salt; MTS] was added thereto and incubated at a temperature of 37° C. for 4 hours. Thereafter, % survival was calculated by measuring absorbance at a wavelength of 490 nm using an ELISA reader. The % survival was calculated as a percentage obtained by dividing the absorbance value for a well-treated with the peptoid by the absorbance value for a well containing control cells which had not been treated with the peptoid."}},
  "note": "No end group written: not given here.",
  "data": [
    {"substance": "GIGKFLKKAKKFGKAFVKILKK-NH2 [Pexiganan, reference compound]", "values": [
      {"measurement": "remaining at 24 h, 11.5 μM", "setting": "[1]", "result": "< 1", "unit": "%"},
      {"measurement": "HD10", "setting": "red blood cells", "result": 113.4},
      {"measurement": "HD50", "setting": "red blood cells", "result": "> 200"},
      {"measurement": "MIC B. subtilis", "setting": "B. subtilis", "result": 0.4, "unit": "µM"},
      {"measurement": "CC50", "setting": "MRCS cell line", "result": 21.2, "unit": "µM"}
    ]}
  ]
}
